# Laboratory results reported in patent US7138361B2, “Herbicidal heterocycles” (E. I. du Pont de Nemours and Company, priority 2000, dated 2006).
# Assays:
# Test in all cases: Test C preemergence
# Type in all cases: in vivo
# [1] = tested on: bermudagrass (Cynodon dactylon)
# Method in brief: (§1)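 Visual injury scores of 0–100, with 100 meaning complete control, were given relative to controls after 12–14 days in the greenhouse. Treatments used a surfactant-containing non-phytotoxic solvent formulation, sprayed on seeded pots preemergence or on 1–4-leaf plants of 2–18 cm postemergence.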
# [2] = tested on: woolly cupgrass (Eriochloa villosa)
# Method in brief: as §1
# [3] = tested on: crabgrass (Digitaria sanguinalis)
# Method in brief: as §1
# [4] = tested on: lambsquarters (Chenopodium album)
# Method in brief: as §1
# kochia (Kochia scoparia) = tested on: kochia (Kochia scoparia)
# Method in brief: as §1
# [5] = tested on: yellow nutsedge (Cyperus esculentus)
# Method in brief: as §1
# [6] = tested on: giant foxtail (Setaria faberii)
# Method in brief: as §1
# [7] = tested on: velvetleaf (Abutilon theophrasti)
# Method in brief: as §1
# [8] = tested on: cocklebur (Xanthium strumarium)
# Method in brief: as §1
# [9] = tested on: pigweed (Amaranthus retroflexus)
# Method in brief: as §1
# Nightshade = tested on: Nightshade
# Sunflower [10] = settings: Rate 125 g/ha; scale 0 to 100, 0 no effect, 100 complete control
# [11] = tested on: common ragweed (Ambrosia elatior)
# Method in brief: as §1
# corn (Zea mays) = tested on: corn (Zea mays)
# Method in brief: as §1
# [12] = tested on: Surinam grass (Brachiaria decumbens)
# Method in brief: as §1
# [13] = tested on: goosegrass (Eleusine indica)
# Method in brief: as §1
# [14] = tested on: morningglory (Ipomoea hederacea)
# Method in brief: as §1
# [15] = tested on: johnsongrass (Sorghum halepense)
# Method in brief: as §1
# soybean (Glycine max) = tested on: soybean (Glycine max)
# Method in brief: as §1
# Sunflower [16] = settings: Rate 250 g/ha, scale 0 to 100, 0 no effect, 100 complete control
# [17] = Rate 125 g/ha, scale 0 to 100, 0 no effect, 100 complete control
# [18] = preemergence, Rate 62 g/ha, scale 0 to 100
# [19] = preemergence, Rate 500 g/ha, visual evaluation after 12 to 14 days
# [20] = preemergence, Rate 250 g/ha, scale 0 to 100, 0 no effect, 100 complete control
smiles,measurement,setting,value
CCCC(C)c1ccn(C2OCN(c3cccc(OC(F)(F)F)c3)C2=O)n1 (stereo not shown) [Compound 91],"Plant response rating, Bermudagrass",[1]; [17],100
same,"Plant response rating, Bermudagrass",[1]; [18],10
same,"Plant response rating (0 to 100 where 0 is no effect and 100 is complete control), Bermudagrass",[1]; [19],100
same,"Plant response rating, Bermudagrass",[1]; [20],100
same,"Plant response rating, Cupgrass, Woolly",[2]; [17],70
same,"Plant response rating, Cupgrass, Woolly",[2]; [18],10
same,"Plant response rating (0 to 100), Cupgrass, Woolly",[2]; [19],100
same,"Plant response rating, Cupgrass, Woolly",[2]; [20],90
same,"Plant response rating, Crabgrass",[3]; [17],100
same,"Plant response rating, Crabgrass",[3]; [18],100
same,"Plant response rating (0 to 100), Crabgrass",[3]; [19],100
same,"Plant response rating, Crabgrass",[3]; [20],100
same,"Plant response rating, Lambsquarters",[4]; [17],100
same,"Plant response rating, Lambsquarters",[4]; [18],90
same,"Plant response rating (0 to 100), Lambsquarters",[4]; [19],100
same,"Plant response rating, Lambsquarters",[4]; [20],100
same,"Plant response rating, Kochia",kochia (Kochia scoparia); [17],90
same,"Plant response rating, Kochia",kochia (Kochia scoparia); [18],20
same,"Plant response rating (0 to 100), Kochia",kochia (Kochia scoparia); [19],100
same,"Plant response rating, Kochia",kochia (Kochia scoparia); [20],90
same,"Plant response rating, Nutsedge",[5]; [17],0
same,"Plant response rating, Nutsedge",[5]; [18],0
same,"Plant response rating (0 to 100), Nutsedge",[5]; [19],0
same,"Plant response rating, Nutsedge",[5]; [20],0
same,"Plant response rating, Foxtail, Giant",[6]; [17],30
same,"Plant response rating, Foxtail, Giant",[6]; [18],10
same,"Plant response rating (0 to 100), Foxtail, Giant",[6]; [19],100
same,"Plant response rating, Foxtail, Giant",[6]; [20],30
same,"Plant response rating, Velvetleaf",[7]; [17],0
same,"Plant response rating, Velvetleaf",[7]; [18],0
same,"Plant response rating (0 to 100), Velvetleaf",[7]; [19],0
same,"Plant response rating, Velvetleaf",[7]; [20],0
same,"Plant response rating, Cocklebur",[8]; [17],0
same,"Plant response rating, Cocklebur",[8]; [18],0
same,"Plant response rating (0 to 100), Cocklebur",[8]; [19],10
same,"Plant response rating, Cocklebur",[8]; [20],0
same,"Plant response rating, Pigweed",[9]; [17],0
same,"Plant response rating, Pigweed",[9]; [18],0
same,"Plant response rating (0 to 100), Pigweed",[9]; [19],100
same,"Plant response rating, Pigweed",[9]; [20],0
same,"Plant response rating, Nightshade","Nightshade; Rate 62 g/ha, scale 0 to 100",0
same,"Plant response rating, Nightshade",Nightshade; [17],0
same,"Plant response rating, Nightshade","Nightshade; Rate 250 g/ha, scale 0 to 100, 0 no effect, 100 complete control",0
same,"Plant response rating, Sunflower",Sunflower [10],0
same,"Plant response rating, Ragweed, Common",[11]; [17],0
same,"Plant response rating, Ragweed, Common",[11]; [18],0
same,"Plant response rating (0 to 100), Ragweed, Common",[11]; [19],0
same,"Plant response rating, Ragweed, Common",[11]; [20],0
same,"Plant response rating, Corn",corn (Zea mays); [17],0
same,"Plant response rating, Corn",corn (Zea mays); [18],0
same,"Plant response rating (0 to 100), Corn",corn (Zea mays); [19],10
same,"Plant response rating, Corn",corn (Zea mays); [20],10
same,"Plant response rating, Surinam grass",[12]; [17],30
same,"Plant response rating, Surinam grass",[12]; [18],0
same,"Plant response rating (0 to 100), Surinam grass",[12]; [19],80
same,"Plant response rating, Surinam grass",[12]; [20],30
same,"Plant response rating, Goosegrass",[13]; [17],100
same,"Plant response rating, Goosegrass",[13]; [18],90
same,"Plant response rating (0 to 100), Goosegrass",[13]; [19],100
same,"Plant response rating, Goosegrass",[13]; [20],100
same,"Plant response rating, Morningglory",[14]; [17],0
same,"Plant response rating, Morningglory",[14]; [18],0
same,"Plant response rating (0 to 100), Morningglory",[14]; [19],0
same,"Plant response rating, Morningglory",[14]; [20],0
same,"Plant response rating, Johnsongrass",[15]; [17],80
same,"Plant response rating, Johnsongrass",[15]; [18],20
same,"Plant response rating (0 to 100), Johnsongrass",[15]; [19],100
same,"Plant response rating, Johnsongrass",[15]; [20],90
same,"Plant response rating, Soybean",soybean (Glycine max); [17],0
same,"Plant response rating, Soybean",soybean (Glycine max); [18],0
same,"Plant response rating (0 to 100), Soybean",soybean (Glycine max); [19],0
same,"Plant response rating, Soybean",soybean (Glycine max); [20],0
same,"Plant response rating, Sunflower",Sunflower [16],0
